# Laboratory results taken from US8293729B2 (Boehringer Ingelheim International GmbH, priority 2009, dated 2012).
# Target: T1, human GPR119 receptor (Homo sapiens, UniProt Q8TDV5, S329A/T327A)
# T1 construct: N-terminal leader […]; expressed in transfected cells
# T1 sequence (Q8TDV5 with tags, fused parts or gaps T327A/S329A): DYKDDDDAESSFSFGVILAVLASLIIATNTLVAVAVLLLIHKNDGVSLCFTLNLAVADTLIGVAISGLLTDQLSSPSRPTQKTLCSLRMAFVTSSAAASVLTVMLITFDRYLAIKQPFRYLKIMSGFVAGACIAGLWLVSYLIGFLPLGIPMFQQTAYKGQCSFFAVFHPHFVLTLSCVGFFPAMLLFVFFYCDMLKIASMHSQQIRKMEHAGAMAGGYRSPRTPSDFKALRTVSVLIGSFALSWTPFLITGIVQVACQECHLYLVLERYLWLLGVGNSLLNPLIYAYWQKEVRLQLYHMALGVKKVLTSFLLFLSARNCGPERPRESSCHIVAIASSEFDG
# Assay: cAMP assay (LANCE cAMP-384) in HEK293 cells stably expressing mutant human GPR119 receptor
# Format: cell-based
# Details: HEK293, 20 min; at 10 μM; printed in EC50 column of the 36th table; read-out: stimulation in % at 10 μM
# Outline: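 HEK293 cells stably expressing human GPR119 (T327A/S329A, modified N-terminus), 1000 cells/well, exposed to compound for 20 min at 37° C. cAMP quantified by LANCE TR-FRET against a standard curve; EC50 from 12 points, 30 μM to 100 pM, or % stimulation at 10 μM.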
row,Compound,activation at 10 µM
1,Cc1ccc(CN2CCC(ON=C3CCN(c4ccc(S(C)(=O)=O)cc4F)CC3)CC2)c(F)c1F [Example 66-48],99%
2,CC(CCN1CCC(ON=C2CCN(c3ccc(S(C)(=O)=O)cc3F)CC2)CC1)c1ccccc1 (stereo not shown) [Example 66-24],53%
3,COc1ccccc1CN1CCC(ON=C2CCN(c3ccc(S(C)(=O)=O)cc3F)CC2)CC1 [Example 66-18],66%

# Same assay, conditions: HEK293, 20 min; single concentration 10 μM; given where no EC50 value could be determined; read-out: % stimulation at 10 μM
row,Compound,activation at 10 µM
1,CC(C)OC(=O)N1CCC(ON=C2CCN(c3ncc(Cl)cc3F)CC2)CC1 [Example 2-68],63%

# Same assay, conditions: cAMP accumulation, HEK293 cells stably expressing mutant human GPR119; read-out: EC50
row,Compound,EC50
1,"CC(C)OC(=O)N1CCC(ON=C2CCN(c3cc(F)c(C(=O)NCC(=O)O)cc3F)CC2)CC1 [Example 30-1, 4-{1-[4-(Carboxymethyl-carbamoyl)-2,5-difluoro-phenyl]-piperidin-4-ylideneaminooxy}-piperidine-1-carboxylic acid isopropyl ester]",1130 nM
2,"CC(C)OC(=O)N1CCC(ON=C2CCN(c3cc(F)c(/C=C/C(=O)O)cc3F)CC2)CC1 [Example 40-1, 4-{1-[4-((E)-2-Carboxy-vinyl)-2,5-difluoro-phenyl]-piperidin-4-ylideneaminooxy}-piperidine-1-carboxylic acid isopropyl ester]",2570 nM
3,"CC(C)OC(=O)N1CCC(ON=C2CCN(c3nc(Cl)c(CO)nc3Cl)CC2)CC1 [Example 56-1, 4-[1-(3,6-Dichloro-5-hydroxymethyl-pyrazin-2-yl)-piperidin-4-ylideneaminooxy]-piperidine-1-carboxylic acid isopropyl ester]",35 nM
4,CC(C)OC(=O)N1CCC(ON=C2CCN(c3cc(F)c(-c4nccn4C)cc3F)CC2)CC1 [Example 27-16],5550 nM
5,CC(C)OC(=O)N1CCC(ON=C2CCN(c3cc(F)c(-c4c[nH]cn4)cc3F)CC2)CC1 [Example 27-14],152 nM
6,CC(C)OC(=O)N1CCC(ON=C2CCN(c3cc(F)c(-n4cncn4)cc3F)CC2)CC1 [Example 22-4],33 nM
7,CC(C)OC(=O)N1CCC(ON=C2CCN(c3ccc(CO)c(Cl)n3)CC2)CC1 [Example 2-26],758 nM
8,CC(C)OC(=O)N1CCC(ON=C2CCN(c3ncc(Br)c(N(C)C)n3)CC2)CC1 [Example 2-54],> 10000 nM
9,Cc1ccc(-c2cc(F)c(N3CCC(=NOC4CCN(C(=O)OC(C)C)CC4)CC3)cc2F)cn1 [Example 27-30],435 nM
10,Cc1c(Cl)ncnc1N1CCC(=NOC2CCN(C(=O)OC(C)C)CC2)CC1 [Example 2-52],653 nM
11,Cc1ccc(-c2cc(F)c(N3CCC(=NOC4CCN(C(=O)OC(C)C)CC4)CC3)cc2F)s1 [Example 27-23],274 nM
12,CC(C)OC(=O)N1CCC(ON=C2CCN(c3cc(F)c(-c4ccoc4)cc3F)CC2)CC1 [Example 27-3],591 nM
13,CC(C)OC(=O)N1CCC(ON=C2CCN(c3cc(F)c(CN(C)S(C)(=O)=O)cc3F)CC2)CC1 [Example 18-2],150 nM
14,CC(C)OC(=O)N1CCC(ON=C2CCN(c3cc(F)c(CN(C)C)cc3F)CC2)CC1 [Example 5-8],> 10000 nM
15,CC(C)OC(=O)N1CCC(ON=C2CCN(c3cc(F)c(CNCCF)cc3F)CC2)CC1 [Example 5-9],703 nM
16,CC(C)OC(=O)N1CCC(ON=C2CCN(c3cc(F)c(Cn4ccnn4)cc3F)CC2)CC1 [Example 14-12],32 nM
17,CC(C)OC(=O)NCc1cc(F)c(N2CCC(=NOC3CCN(C(=O)OC(C)C)CC3)CC2)cc1F [Example 16-7],134 nM
18,Cc1noc(C)c1-c1cc(F)c(N2CCC(=NOC3CCN(C(=O)OC(C)C)CC3)CC2)cc1F [Example 27-2],> 10000 nM
19,Cc1ccc(-c2cc(F)c(N3CCC(=NOC4CCN(C(=O)OC(C)C)CC4)CC3)cc2F)nc1 [Example 27-26],861 nM
20,CC(C)OC(=O)N1CCC(ON=C2CCN(c3ccncc3F)CC2)CC1 [Example 2-72],750 nM

# Same assay, conditions: the 15th table; read-out: EC50
row,Compound,EC50
1,CC(C)OC(=O)N1CCC(ON=C2CCN(c3cc(F)c(C(=O)N4CCC(CN5CCCC5)CC4)cc3F)CC2)CC1 [Example 29-48],69 nM

# Same assay, conditions: the 19th table; unit inferred; read-out: EC 50
row,Compound,EC50
1,CCc1cnc(N2CCC(ON=C3CCN(c4cc(F)c(C(=O)NC5CNC5)cc4F)CC3)CC2)nc1 [Example 29-116],322 nM
2,CCc1cnc(N2CCC(ON=C3CCN(c4cc(F)c(C(=O)NC5CCCNC5)cc4F)CC3)CC2)nc1 (stereo not shown) [Example 29-127],322 nM
3,CCc1cnc(N2CCC(ON=C3CCN(c4cc(F)c(C(=O)N5CCC(CNC)CC5)cc4F)CC3)CC2)nc1 [Example 29-130],206 nM
4,CCc1cnc(N2CCC(ON=C3CCN(c4cc(F)c(C(=O)N5CCCCC5CN)cc4F)CC3)CC2)nc1 (stereo not shown) [Example 29-131],64 nM
5,CCc1cnc(N2CCC(ON=C3CCN(c4cc(F)c(C(=O)NCC5CCCN5C)cc4F)CC3)CC2)nc1 (stereo not shown) [Example 29-138],185 nM
6,CCc1cnc(N2CCC(ON=C3CCN(c4cc(F)c(C(=O)NCC5COCCN5)cc4F)CC3)CC2)nc1 (stereo not shown) [Example 29-87],128 nM
7,CCc1cnc(N2CCC(ON=C3CCN(c4cc(F)c(C(=O)N5CCC(CN)CC5)cc4F)CC3)CC2)nc1 [Example 29-125],168 nM

# Same assay, conditions: the 30th table; read-out: EC50
row,Compound,EC50
1,CC(C)OC(=O)N1CCC(ON=C2CCN(c3ncc(Cn4nccn4)cc3F)CC2)CC1 [Example 54-3],765 nM

# Same assay, conditions: the 31st table; read-out: EC50
row,Compound,EC50
1,CC(C)OC(=O)N1CCC(ON=C2CN(c3ccc(S(C)(=O)=O)cc3F)C2)CC1 [Example 61-3],161 nM

# Same assay, conditions: the 32nd table; read-out: EC50
row,Compound,EC50
1,CS(=O)(=O)c1ccc(N2CCC(=NOC3CCN(c4ncc(Br)cn4)CC3)CC2)c(F)c1 [Example 63-19],77 nM
2,CS(=O)(=O)c1ccc(N2CCC(=NOC3CCN(c4ccc(C(F)(F)F)cn4)CC3)CC2)c(F)c1 [Example 63-14],495 nM
3,CS(=O)(=O)c1ccc(N2CCC(=NOC3CCN(c4ncccn4)CC3)CC2)c(F)c1 [Example 63-8],238 nM
4,CS(=O)(=O)c1ccc(N2CCC(=NOC3CCN(c4nccs4)CC3)CC2)c(F)c1 [Example 63-7],447 nM

# Same assay, conditions: the 33rd table; read-out: EC50
row,Compound,EC50
1,CCC(CC)COC(=O)N1CCC(ON=C2CCN(c3ccc(S(C)(=O)=O)cc3F)CC2)CC1 [Example 64-49],54 nM
2,CCC(C)COC(=O)N1CCC(ON=C2CCN(c3ccc(S(C)(=O)=O)cc3F)CC2)CC1 (stereo not shown) [Example 64-47],43 nM
3,CCOC(=O)C1CC1COC(=O)N1CCC(ON=C2CCN(c3ccc(S(C)(=O)=O)cc3F)CC2)CC1 (stereo not shown) [Example 64-31],107 nM
4,"CS(=O)(=O)c1ccc(N2CCC(=NOC3CCN(C(=O)OC4CCC4)CC3)CC2)c(F)c1 [Example 64-1, 4-[1-(2-Fluoro-4-methanesulfonyl-phenyl)-piperidin-4-ylideneaminooxy]-piperidine-1-carboxylic acid cyclobutyl ester]",81 nM

# Same assay, conditions: the 34th table, compounds 65-1 to 65-24; read-out: EC50
row,Compound,EC50
1,CS(=O)(=O)c1ccc(N2CCC(=NOC3CCN(S(=O)(=O)c4ccccc4)CC3)CC2)c(F)c1 [Example 65-18],1100 nM
2,CS(=O)(=O)c1ccc(N2CCC(=NOC3CCN(C(=O)Oc4ccccc4)CC3)CC2)c(F)c1 [Example 65-12],57 nM
3,CC(C)S(=O)(=O)N1CCC(ON=C2CCN(c3ccc(S(C)(=O)=O)cc3F)CC2)CC1 [Example 65-16],> 10000 nM

# Same assay, conditions: the 36th table, compounds 66-1 to 66-51; read-out: EC50
row,Compound,EC50
1,Cc1cc(CN2CCC(ON=C3CCN(c4ccc(S(C)(=O)=O)cc4F)CC3)CC2)n(C)n1 [Example 66-13],> 10000 nM
2,CC(=O)Nc1ccc(CN2CCC(ON=C3CCN(c4ccc(S(C)(=O)=O)cc4F)CC3)CC2)cc1 [Example 66-39],> 10000 nM
3,CS(=O)(=O)c1ccc(N2CCC(=NOC3CCN(Cc4ccccc4)CC3)CC2)c(F)c1 [Example 66-15],982 nM
4,Cn1cc(CN2CCC(ON=C3CCN(c4ccc(S(C)(=O)=O)cc4F)CC3)CC2)cn1 [Example 66-10],> 10000 nM
5,CS(=O)(=O)c1ccc(N2CCC(=NOC3CCN(Cc4ccccc4C(F)(F)F)CC3)CC2)c(F)c1 [Example 66-29],1220 nM

# Same assay, conditions: the 37th table, compounds 66-52 to 66-64; read-out: EC50
row,Compound,EC50
1,CS(=O)(=O)c1cc(F)c(N2CCC(=NOC3CCN(Cc4ccc(Cl)cc4)CC3)CC2)cc1F [Example 66-56],50 nM

# Same assay, conditions: the 38th table, compounds 66-65 to 66-72; read-out: EC50
row,Compound,EC50
1,CNC(=O)c1cc(F)c(N2CCC(=NOC3CCN(Cc4ccc(C(F)(F)F)cc4)CC3)CC2)cc1F [Example 66-67],155 nM
2,CCCc1ccc(CN2CCC(ON=C3CCN(c4cc(F)c(C(=O)NC)cc4F)CC3)CC2)cc1 [Example 66-72],109 nM

# Same assay, conditions: the 41st table, compounds 73-1, 73-2; unit inferred; read-out: EC50
row,Compound,EC50
1,CS(=O)(=O)c1ccc(N2CCC(=NOC3CCN(C(=O)N4CCCC4)CC3)CC2)c(F)c1 [Example 73-2],1510 nM

# Same assay, conditions: the 43rd table, compounds 75-1 to 75-38; read-out: EC50
row,Compound,EC50
1,CNC1CCN(C(=O)Cc2cc(F)c(N3CCC(=NOC4CCN(C(=O)OC(C)C)CC4)CC3)cc2F)CC1 [Example 75-21],126 nM
2,CC(C)OC(=O)N1CCC(ON=C2CCN(c3cc(F)c(CC(=O)NC4CCNCC4)cc3F)CC2)CC1 [Example 75-18],98 nM

# Same assay, conditions: the 44th table, compounds 77-1 to 77-14; read-out: EC50
row,Compound,EC50
1,CCc1cnc(N2CCC(ON=C3CCN(c4cc(F)c(CC(=O)N5CC[C@H](N)C5)cc4F)CC3)CC2)nc1 [Example 77-12],19 nM
2,CCc1cnc(N2CCC(ON=C3CCN(c4cc(F)c(CC(=O)N(C)C)cc4F)CC3)CC2)nc1 [Example 77-3],18 nM
